Test results from patent US20100226881A1, “PYRAZOLO[1,5-a]PYRIDINES AND THEIR USE IN CANCER THERAPY” (Auckland Uniservices Limited, priority 2007, published 2010).
Where a name gives a salt, the structure may show the parent alone. Read-outs that look alike come from different tables or passages of the source.

Legend:
[1] = system: NZB5; assay: Cellular growth inhibition (3H-thymidine), NZB5; assay type: cell-based; conditions: Homo sapiens, five days, 3H-thymidine incorporation, maximum 20 μM
Procedure: (§1) The compounds were evaluated against two early passage human cell lines NZB5 and NZOV9, whose development and culture have been described [Marshall et al, Oncol. Res. 2004, 14, 297]. The cells were grown in ITS medium (α-modified minimal essential medium supplemented insulin, transferrin, selenite and 5% fetal bovine serum) and grown on 96-well tissue culture plates under an atmosphere of 5% O2, 5% CO2 and 90% N2. Individual wells contained 500-1000 cells (depending on the growth rate) in a volume of 150 μL. Compounds were added at 10-fold concentration steps to a maximum of 20 μM and plates were incubated for five days, with ^3H-thymidine being added over the last 6 h. Cells were harvested and incorporated radioactivity measured. Duplicate samples were analyzed for each compound dose with multiple control samples. Data were fitted by a least-squares method to an exponential of the form y=y0+ae^−bx, where y is the radioactivity (corrected for background and normalized to 100% of the control) x is the radiation dose, and y0, a and b are variables, and the IC50 value defined as the compound concentration reducing ^3H-thymidine levels by 50%.

[2] = target: p110δ/p85 (Homo sapiens, UniProt O00329); assay: Inhibition of isolated enzyme, PI 3-kinase p110δ/p85; assay type: biochemical; conditions: recombinant enzyme, 100 μM ATP, average of two experiments
Procedure: (§2) Compounds were evaluated for their ability to inhibit the Class I PI 3-kinase enzymes p110δ/p85, p110α/p85 and p110β/p85. Reaction mixtures comprising 0.1 μg of recombinant enzyme, 10 μg of L-α-phosphatidylinositol, the compound (DMSO only or DMSO+compound to a final concentration of 1%), 2× Lipid Kinase Buffer (40 mM Tris-HCl pH 7.4, 200 mM NaCl, 1 mM EDTA) were activated by the addition of an ATP mix (5 mM MgCl2, 100 μM ATP, 0.1 μL [γ^33P]ATP). […] Firstly, 200 μL of chloroform/methanol (1:1) was added, the biphasic reactions mixed and centrifuged briefly, and the inorganic phase was removed and discarded.

[3] = system: NZOV9; assay: Cellular growth inhibition (3H-thymidine), NZOV9; assay type: cell-based; conditions: Homo sapiens, five days, 3H-thymidine incorporation, maximum 20 μM
Procedure: as §1

[4] = target: p110α/p85 (Homo sapiens, UniProt P42336); assay: Inhibition of isolated enzyme, PI 3-kinase p110α/p85
[5] = target: p110β/p85 (Homo sapiens, UniProt P42338); assay: Inhibition of isolated enzyme, PI 3-kinase p110β/p85; assay type: biochemical; conditions: recombinant enzyme, 100 μM ATP, average of two experiments
Procedure: as §2

[6] = read-out: IC50 (nM) p110α, recombinant enzyme, 100 μM ATP, average of two experiments

p110α/p85, sequence (P42336 whole entry, species assumed): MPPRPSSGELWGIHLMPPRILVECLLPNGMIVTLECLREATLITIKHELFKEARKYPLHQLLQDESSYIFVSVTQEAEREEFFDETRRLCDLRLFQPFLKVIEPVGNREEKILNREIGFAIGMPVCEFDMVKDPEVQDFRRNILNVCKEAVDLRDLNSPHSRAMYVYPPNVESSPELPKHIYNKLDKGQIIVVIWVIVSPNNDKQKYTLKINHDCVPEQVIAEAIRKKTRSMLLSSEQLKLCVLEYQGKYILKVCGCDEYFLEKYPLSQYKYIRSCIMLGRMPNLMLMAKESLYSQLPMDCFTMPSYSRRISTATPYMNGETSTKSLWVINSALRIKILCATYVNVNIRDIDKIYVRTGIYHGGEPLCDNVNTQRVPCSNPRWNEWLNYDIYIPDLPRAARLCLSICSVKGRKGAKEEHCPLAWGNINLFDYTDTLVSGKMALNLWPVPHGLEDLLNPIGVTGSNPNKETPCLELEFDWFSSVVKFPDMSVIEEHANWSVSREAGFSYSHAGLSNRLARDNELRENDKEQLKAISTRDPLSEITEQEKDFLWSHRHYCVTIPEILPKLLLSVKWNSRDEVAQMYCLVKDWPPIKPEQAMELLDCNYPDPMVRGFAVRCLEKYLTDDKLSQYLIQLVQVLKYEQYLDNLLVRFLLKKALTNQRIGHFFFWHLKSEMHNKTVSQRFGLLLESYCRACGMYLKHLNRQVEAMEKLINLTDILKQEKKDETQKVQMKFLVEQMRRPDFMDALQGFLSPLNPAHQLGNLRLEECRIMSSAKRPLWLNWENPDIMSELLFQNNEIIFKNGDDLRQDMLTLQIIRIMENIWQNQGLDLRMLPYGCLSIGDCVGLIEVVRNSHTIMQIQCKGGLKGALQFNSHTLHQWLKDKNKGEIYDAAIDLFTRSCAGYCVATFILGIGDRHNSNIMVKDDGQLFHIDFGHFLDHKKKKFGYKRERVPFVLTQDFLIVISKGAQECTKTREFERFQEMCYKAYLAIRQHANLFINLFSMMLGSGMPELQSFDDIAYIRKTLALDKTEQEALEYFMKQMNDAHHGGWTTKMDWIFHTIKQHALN
p110α/p85, sequence (P27986 whole entry partner, species assumed): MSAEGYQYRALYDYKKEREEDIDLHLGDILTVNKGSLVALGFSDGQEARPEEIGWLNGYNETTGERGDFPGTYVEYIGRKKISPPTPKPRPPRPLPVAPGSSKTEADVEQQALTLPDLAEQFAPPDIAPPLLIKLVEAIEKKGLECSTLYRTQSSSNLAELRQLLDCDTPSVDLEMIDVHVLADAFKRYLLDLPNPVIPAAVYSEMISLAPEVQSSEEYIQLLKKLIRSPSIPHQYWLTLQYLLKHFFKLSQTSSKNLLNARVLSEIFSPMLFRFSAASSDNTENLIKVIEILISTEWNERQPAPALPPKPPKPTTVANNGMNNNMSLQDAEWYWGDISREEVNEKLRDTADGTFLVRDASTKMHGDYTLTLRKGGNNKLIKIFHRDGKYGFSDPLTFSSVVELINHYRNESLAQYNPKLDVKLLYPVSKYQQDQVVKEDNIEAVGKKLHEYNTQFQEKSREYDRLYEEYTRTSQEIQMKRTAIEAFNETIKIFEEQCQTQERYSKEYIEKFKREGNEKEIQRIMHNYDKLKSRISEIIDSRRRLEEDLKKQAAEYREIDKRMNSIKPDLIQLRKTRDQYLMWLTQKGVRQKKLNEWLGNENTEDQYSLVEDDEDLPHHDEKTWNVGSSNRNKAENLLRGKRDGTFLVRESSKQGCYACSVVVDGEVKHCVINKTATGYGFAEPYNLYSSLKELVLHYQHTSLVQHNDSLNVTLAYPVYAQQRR
p110β/p85, sequence (P42338 whole entry, species assumed): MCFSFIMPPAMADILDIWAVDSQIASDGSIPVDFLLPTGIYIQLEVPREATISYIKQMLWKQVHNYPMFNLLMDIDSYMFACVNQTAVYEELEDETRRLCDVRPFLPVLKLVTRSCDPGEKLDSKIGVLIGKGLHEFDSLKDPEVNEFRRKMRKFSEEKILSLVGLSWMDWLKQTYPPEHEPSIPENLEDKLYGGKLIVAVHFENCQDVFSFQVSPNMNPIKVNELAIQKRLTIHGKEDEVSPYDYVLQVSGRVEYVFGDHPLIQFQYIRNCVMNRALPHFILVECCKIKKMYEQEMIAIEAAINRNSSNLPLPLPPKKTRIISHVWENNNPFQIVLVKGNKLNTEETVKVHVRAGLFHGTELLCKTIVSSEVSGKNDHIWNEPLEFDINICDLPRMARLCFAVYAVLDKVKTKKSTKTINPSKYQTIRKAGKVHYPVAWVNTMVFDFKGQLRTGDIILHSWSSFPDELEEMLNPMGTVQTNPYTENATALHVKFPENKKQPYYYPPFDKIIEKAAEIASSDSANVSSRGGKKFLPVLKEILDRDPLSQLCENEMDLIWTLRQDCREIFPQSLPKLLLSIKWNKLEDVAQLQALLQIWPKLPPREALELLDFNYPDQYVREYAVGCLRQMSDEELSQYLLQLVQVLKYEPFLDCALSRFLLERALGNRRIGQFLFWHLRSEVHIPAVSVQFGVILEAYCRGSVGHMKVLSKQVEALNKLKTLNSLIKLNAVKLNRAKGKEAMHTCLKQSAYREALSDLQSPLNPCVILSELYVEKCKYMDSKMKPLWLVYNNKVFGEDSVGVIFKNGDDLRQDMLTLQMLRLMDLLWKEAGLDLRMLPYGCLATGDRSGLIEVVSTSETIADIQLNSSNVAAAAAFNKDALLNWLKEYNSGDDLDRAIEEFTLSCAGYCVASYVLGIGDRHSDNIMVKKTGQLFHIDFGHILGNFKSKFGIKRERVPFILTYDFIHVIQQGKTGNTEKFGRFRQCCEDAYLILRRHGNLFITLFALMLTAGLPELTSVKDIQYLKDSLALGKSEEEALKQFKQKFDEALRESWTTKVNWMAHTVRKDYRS
p110β/p85, sequence (P27986 whole entry partner, species assumed): as the sequence (P27986 whole entry partner, species assumed) above
p110δ/p85, sequence (O00329 whole entry, species assumed): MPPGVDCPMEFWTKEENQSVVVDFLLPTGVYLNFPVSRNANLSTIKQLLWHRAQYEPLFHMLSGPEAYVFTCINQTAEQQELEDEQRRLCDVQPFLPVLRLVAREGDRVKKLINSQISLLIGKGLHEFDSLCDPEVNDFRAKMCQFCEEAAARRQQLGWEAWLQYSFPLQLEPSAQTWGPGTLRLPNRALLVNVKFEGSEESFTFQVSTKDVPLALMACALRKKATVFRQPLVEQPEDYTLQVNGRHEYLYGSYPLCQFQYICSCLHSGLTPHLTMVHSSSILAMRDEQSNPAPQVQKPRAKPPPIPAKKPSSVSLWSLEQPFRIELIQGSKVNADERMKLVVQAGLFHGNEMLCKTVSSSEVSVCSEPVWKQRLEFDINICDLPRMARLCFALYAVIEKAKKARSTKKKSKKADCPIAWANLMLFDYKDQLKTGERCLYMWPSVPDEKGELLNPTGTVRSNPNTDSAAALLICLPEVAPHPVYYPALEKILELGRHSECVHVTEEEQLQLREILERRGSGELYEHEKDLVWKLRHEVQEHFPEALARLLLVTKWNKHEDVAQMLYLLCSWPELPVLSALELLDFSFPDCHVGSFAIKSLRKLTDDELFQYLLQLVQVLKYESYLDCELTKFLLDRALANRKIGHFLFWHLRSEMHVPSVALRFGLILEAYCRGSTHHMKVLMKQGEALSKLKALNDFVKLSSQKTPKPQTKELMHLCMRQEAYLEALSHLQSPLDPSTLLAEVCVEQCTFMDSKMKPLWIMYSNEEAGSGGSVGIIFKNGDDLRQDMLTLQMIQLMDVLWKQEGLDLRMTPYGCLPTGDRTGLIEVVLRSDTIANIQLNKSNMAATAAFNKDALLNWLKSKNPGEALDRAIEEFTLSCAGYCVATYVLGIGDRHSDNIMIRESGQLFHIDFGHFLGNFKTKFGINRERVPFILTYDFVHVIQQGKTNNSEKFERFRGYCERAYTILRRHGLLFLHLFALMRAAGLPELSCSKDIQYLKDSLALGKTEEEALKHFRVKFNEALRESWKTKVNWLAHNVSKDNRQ
p110δ/p85, sequence (P27986 whole entry partner, species assumed): as the sequence (P27986 whole entry partner, species assumed) above

SMILES	IC50 [1] [µM]	IC50 [2] [nM]	IC50 [3] [µM]	IC50 [4, 6] [nM]	IC50 [5] [nM]	IC50 [4] [nM]
Cc1ccc([N+](=O)[O-])cc1S(=O)(=O)N(C)N=Cc1cnn2ccccc12 [E1, N,2-Dimethyl-5-nitro-N′-(pyrazolo[1,5-a]pyridin-3-ylmethylene)benzene-sulfonohydrazide]	0.47	3400	0.66	190	–	–
Cc1ccn2ncc(C=NN(C)S(=O)(=O)c3cc([N+](=O)[O-])ccc3C)c2c1 [E2, N,2-Dimethyl-N′-((5-methylpyrazolo[1,5-a]pyridin-3-yl)methylene)-5-nitro-benzenesulfonohydrazide]	0.05	640	0.07	110	> 1000	–
Cc1ccn2nc(C)c(C=NN(C)S(=O)(=O)c3cc([N+](=O)[O-])ccc3C)c2c1 [E4, N′-((2,5-Dimethylpyrazolo[1,5-a]pyridin-3-yl)methylene)-N,2-dimethyl-5-nitrobenzenesulfonohydrazide]	15	> 1000	20	870	> 1000	–
COC(=O)c1ccn2ncc(C=NN(C)S(=O)(=O)c3cc([N+](=O)[O-])ccc3C)c2c1 [E6, Methyl 3-((2-methyl-2-(2-methyl-5-nitrophenylsulfonyl)hydrazono)methyl)pyrazolo[1,5-a]pyridine-5-carboxylate]	1.8	790	1.5	260	> 1000	–
COc1ccn2ncc(C=NN(C)S(=O)(=O)c3cc([N+](=O)[O-])ccc3C)c2c1 [E9, N′-((5-Methoxypyrazolo[1,5-a]pyridin-3-yl)methylene)-N,2-dimethyl-5-nitrobenzenesulfonohydrazide]	0.94	> 1000	0.52	230	> 1000	–
Cc1ccc([N+](=O)[O-])cc1S(=O)(=O)N(C)N=Cc1cnn2ccc(I)cc12 [E15, N′-((5-Iodopyrazolo[1,5-a]pyridin-3-yl)methylene)-N,2-dimethyl-5-nitro-benzenesulfonohydrazide]	0.04	240	0.05	–	720	23
Cc1ccc([N+](=O)[O-])cc1S(=O)(=O)N(C)N=Cc1cnn2ccc(C3CC3)cc12 [E17, N′-((5-cyclopropylpyrazolo[1,5-a]pyridin-3-yl)methylene)-N,2-dimethyl-5-nitrobenzenesulfonohydrazide]	0.74	> 1000	0.67	330	> 1000	–
C#Cc1ccn2ncc(C=NN(C)S(=O)(=O)c3cc([N+](=O)[O-])ccc3C)c2c1 [E18, N′-((5-Ethynylpyrazolo[1,5-a]pyridin-3-yl)methylene)-N,2-dimethyl-5-nitrobenzenesulfonohydrazide]	0.16	43	0.11	1.4	47	–
Cc1ccc(F)cc1S(=O)(=O)N(C)N=Cc1cnn2ccc(C#N)cc12 [E27, N′-((5-Cyanopyrazolo[1,5-a]pyridin-3-yl)methylene)-5-fluoro-N,2-dimethylbenzenesulfonohydrazide]	> 20	340	14	86	870	–
CC(C)c1ccc([N+](=O)[O-])cc1S(=O)(=O)N(C)N=Cc1cnn2ccc(C#N)cc12 [E33, N′-((5-Cyanopyrazolo[1,5-a]pyridin-3-yl)methylene)-2-isopropyl-N-methyl-5-nitrobenzenesulfonohydrazide]	0.19	40	0.26	1.8	300	–
CN(N=Cc1cnn2ccc(C#N)cc12)S(=O)(=O)c1cc([N+](=O)[O-])ccc1Cl [E34, 2-Chloro-N′-((5-cyanopyrazolo[1,5-a]pyridin-3-yl)methylene)-N-methyl-5-nitrobenzenesulfonohydrazide]	0.88	–	0.35	–	–	–
Cc1ccc(C#N)cc1S(=O)(=O)N(CCO)N=Cc1cnn2ccc(C#N)cc12 [E40, 5-Cyano-N′-((5-cyanopyrazolo[1,5-a]pyridin-3-yl)methylene)-N-(2-hydroxyethyl)-2-methylbenzenesulfonohydrazide]	3.2	25	0.62	3	23	–
Cc1ccc([N+](=O)[O-])cc1S(=O)(=O)NN=Cc1cnn2ccc(C#N)cc12 [E42, N′-((5-Cyanopyrazolo[1,5-a]pyridin-3-yl)methylene)-2-methyl-5-nitro-benzenesulfonohydrazide]	2.5	580	4.9	13	620	–
Cc1ccc([N+](=O)[O-])cc1S(=O)(=O)N(CCN(C)C)N=Cc1cnn2ccc(C#N)cc12 [E46, N′-((5-Cyanopyrazolo[1,5-a]pyridin-3-yl)methylene)-N-(2-(dimethylamino)ethyl)-2-methyl-5-nitrobenzenesulfonohydrazide]	0.37	130	0.4	30	200	–
Cc1ccc([N+](=O)[O-])cc1S(=O)(=O)N(CCN1CCOCC1)N=Cc1cnn2ccc(C#N)cc12 [E47, N′-((5-Cyanopyrazolo[1,5-a]pyridin-3-yl)methylene)-2-methyl-N-(2-morpholinoethyl)-5-nitrobenzenesulfonohydrazide]	0.51	10	0.55	4.5	230	–
CN(N=Cc1cnn2ccc(C#N)cc12)S(=O)(=O)c1cc([N+](=O)[O-])ccc1NCCN1CCOCC1 [E58, N′-((5-Cyanopyrazolo[1,5-a]pyridin-3-yl)methylene)-N-methyl-2-(2-morpholinoethylamino)-5-nitrobenzenesulfonohydrazide hydrochloride]	9.4	26	> 20	9	> 1000	–
CN(N=Cc1cnn2ccc(C#N)cc12)S(=O)(=O)c1cc([N+](=O)[O-])ccc1NCCc1c[nH]cn1 [E63, 2-(2-(1H-Imidazol-4-yl)-ethylamino)-N′-((5-cyanopyrazolo[1,5-a]pyridin-3-yl)methylene)-N-methyl-5-nitrobenzenesulfonohydrazide hydrochloride]	0.82	320	0.61	55	> 1000	–
CN(N=Cc1cnn2ccc(C#N)cc12)S(=O)(=O)c1cc([N+](=O)[O-])ccc1NCc1cccnc1 [E65, N′-((5-Cyanopyrazolo[1,5-a]pyridin-3-yl)methylene)-N-methyl-5-nitro-2-(pyridin-3-ylmethylamino)benzenesulfonohydrazide hydrochloride]	1.1	440	0.68	9.6	580	–
CN(N=Cc1cnn2ccc(C#N)cc12)S(=O)(=O)c1cc([N+](=O)[O-])ccc1OCc1ccccn1 [E71, N′-((5-Cyanopyrazolo[1,5-a]pyridin-3-yl)methylene)-N-methyl-5-nitro-2-(pyridin-2-ylmethoxy)benzenesulfonohydrazide hydrochloride]	1.3	200	0.66	–	5600	5.8
CN(C)c1ccc([N+](=O)[O-])cc1S(=O)(=O)N(C)N=Cc1cnn2ccc(Br)cc12 [E73, N′-((5-Bromopyrazolo[1,5-a]pyridin-3-yl)methylene)-2-(dimethylamino)-N-methyl-5-nitrobenzenesulfonohydrazide]	0.11	210	0.31	3.4	35	–
CN(N=Cc1cnn2ccc(Br)cc12)S(=O)(=O)c1cc([N+](=O)[O-])ccc1OCCN1CCOCC1 [E74, N′-((5-Bromopyrazolo[1,5-a]pyridin-3-yl)methylene)-N-methyl-2-(2-morpholinoethoxy)-5-nitrobenzenesulfonohydrazide hydrochloride]	0.27	350	0.55	32	2900	–
CN(C)CCN(C)c1ccc(C#N)cc1S(=O)(=O)N(C)N=Cc1cnn2ccc(C#N)cc12 [E77, 5-Cyano-N′-((5-cyanopyrazolo[1,5-a]pyridin-3-yl)methylene)-2-((2-(dimethylamino)ethyl)(methyl)amino)-N-methylbenzenesulfonohydrazide hydro-chloride]	0.06	380	0.05	10	360	–
